Assay results: patent publication US20040002119A1, “Method of predicting cell-based assay results using binding profiles” (priority 2002, published 2004)
Entries after “also recorded” stand apart in the source; their conditions may differ. Like-named read-outs stand apart in the source and are kept apart here.

Key:
ERα LBD = molecular target: T1, ERα LBD (Homo sapiens, UniProt P03372); assay type: binding
T1 sequence (P03372 311-547 limits assumed): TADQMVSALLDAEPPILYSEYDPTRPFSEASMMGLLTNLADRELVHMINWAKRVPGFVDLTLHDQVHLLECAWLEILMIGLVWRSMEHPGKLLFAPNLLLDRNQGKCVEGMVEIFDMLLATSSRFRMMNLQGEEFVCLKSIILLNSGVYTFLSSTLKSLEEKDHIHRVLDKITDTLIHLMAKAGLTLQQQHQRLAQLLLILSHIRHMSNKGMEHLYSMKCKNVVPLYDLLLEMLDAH
Description: The peptide sequences were synthesized with biotin at one end, and coupled to fluorescently distinct microsphere populations (5.6 μm streptavidin-coated latex microsphere particles). Multiple peptides of the same sequence were coupled to microspheres having the same fluorescent label, creating 46 fluorescently distinct microsphere populations (45 peptides plus no-peptide control). The microspheres populations were then multiplexed (combined). Alternatively, the ERα LBD could be coupled to the fluorescent microspheres.
The Estrogen Receptor a Ligand Binding Domain (ERα LBD) was coupled to the fluorophore Alexa 532 (Molecular Probes, Inc., Eugene, Oreg.), which is suitable for use with 532 nm excitation sources. The excitation and emission spectra of Alexa 532 is intermediate between the green-fluorescent Alexa Fluor 488 dye and the orange-fluorescent Alexa Fluor 546 dye.
The resulting binding of peptide to LBD is detected by flow cytometric analysis as is known in the art (see, e.g. WO 01/75443). In the present example, binding of ERα to a microsphere subset was indicated by the acquisition of orange fluorescence, detected using a LX-100 instrument (Luminex Corporation, Austin, Tex.). The above procedure is repeated for each compound to create a library of Binding Profiles.
Binding Profiles for each of the six phage-identified peptides described above were also generated using the same multiplexed assay as described above.

[1] = tested on: human endometrial cells (Ishikawa cell line); assay: Ishikawa endometrial cell stimulation assay (intrinsic alkaline phosphatase); assay type: cell-based; details: absorbance at 405 nm minus blank; FIG. 13
Experimental: The stimulation of human endometrial cells (Ishikawa cell line) was determined by increases in intrinsic alkaline phosphatase activity. […] The % Emax is defined as 100×(spectrophotometric reading at 405 nm with compound-blank)/(spectrophotometric reading at 405 nm estradiol-blank).

[2] = tested on: MCF-7 breast cancer cells; assay: MCF-7 cell proliferation assay ([3H]-thymidine incorporation); assay type: cell-based, human; details: CPM, FIG. 11
Experimental: MCF-7 potency=(pEC50 or pIC50)(% cpm max or % cpm min).
Cell proliferation of MCF-7 breast cancer cells was determined by [^3H]-thymidine incorporation. Compounds were tested for their potential to either stimulate MCF-7 proliferation or inhibit proliferation. An EC50 or IC50 was determined for each compound tested.

4-OH tamoxifen
K7P2 peptide binding to ERα LBD over basal (ERα LBD): decreased binding of K7P2 over basal and not | RAC3 (671-697) binding to ERα LBD relative to unliganded ERα LBD (ERα LBD): decreases | T1P3 peptide binding to ERα LBD over basal (ERα LBD): increased binding of T1P3 over basal | binding of ERα LBD to coactivator, coregulator and corepressor peptides compared to basal (no compound) (ERα LBD): reduced the amount of peptide binding compared to basal binding; also recorded: decreases or only slightly increases binding

COc1ccc2c(c1)OC(C)(C)[C@@H](c1ccccc1)[C@@H]2c1ccc(OCCN2CCCC2)cc1 [levormeloxifene]
K7P2 peptide binding to ERα LBD over basal (ERα LBD; phage-identified peptide K7P2, 1 μM compound, FIG. 9): not

O=C(c1ccc(OCCN2CCCCC2)cc1)c1c(-c2ccc(O)cc2)sc2cc(O)ccc12 [raloxifene]
stimulation of intrinsic alkaline phosphatase in Ishikawa cells [1]: very low stimulatory activity | MCF-7 cell proliferation with increasing compound concentration [2]: cell proliferation decreased
